Patent US5587397A, “Reduction of elevated blood lactate using twice-daily dichloroacetate” (Cypros Pharmaceutical Corporation, priority 1995, dated 1996)
“Also recorded” adds a separate entry of the source. Where two headings read alike, the source gives them in different places.

Columns and labels:
[1] = tested on: serum lactate; experiment: Serum/blood lactate concentration in human volunteers after intravenous DCA infusion; format: in vivo; settings: for Serum lactate, baseline: before infusion; for Serum lactate, baseline / Serum lactate just before second infusion / Serum lactate 14 h after second infusion: mean ± SEM; for Serum lactate just before second infusion: second infusion 8 h later; for Level of statistical significance, (b) vs. placebo: just before second infusion; for Persistence of lactate reduction relative to DCA clearance: 60 mg/kg
Procedure: Eighteen human beings entered this study; all provided informed consent that was acceptable to an independent Institutional Review Board, which also approved the study design and toxicological coverage. The human subjects were all healthy, were fasted for 18 hours prior to the study infusions, and were all within 85% to 115% of ideal body weight, using actuarial tables published by the Metropolitan Life Insurance Company. Each received an accurately measured meal (late breakfast, 821 kcal total including 116 g of carbohydrate, 30 g of protein, and 32 g of fat).
(§1) Teflon venous catheters were placed in both forearms of all subjects. One, for drug administration, was left in place for 10 hours. The other, for blood sampling, was left in place for about 30 hours. Both venous cannulae were regularly flushed with a heparin-saline solution to avoid any risk of clogging or clotting. When blood was sampled, the first-drawn fluid was discarded, so that blood samples were not contaminated with the heparin-saline solution.
(§2) Sodium dichloroacetate (NaDCA; purchased in powdered form from TCI America, Inc., Portland, Oreg.) was dissolved in saline solution to provide a 10% sterile solution (i.e., 10 g of NaDCA in 100 ml solution) at a contract lab. The vials containing 10% solution were shipped to the study site, in Indiana, and then diluted to form approximately 2% solutions in intravenous drip bags. Exact concentrations depended to some extent on the weight of each patient; all concentrations were within 20 % of isotonic levels. A 2% solution was administered through one cannula into each test subject over a period of 30 minutes, at a dosage of 30 mg/kg (i.e, 30 milligrams of NaDCA salt per kilogram of body weight). The average total weight of NaDCA infused into each patient was about 2.26±0.54 g; total volume of solution was about 100 ml. […] Nine subjects received a single infusion of DCA, and nine received the saline placebo.
(§3) Samples of venous blood from the other cannula (in the opposite forearm) were taken, before and several times periodically after the intravenous infusion. The infusions were number-coded, and all solutions (both active and placebo) were colorless; therefore, this was a double-blinded study.
Blood samples were collected into tubes containing sodium heparin, and spun at 64 G (i.e., 64 times normal gravity) for 10 minutes, to remove blood cells. The supernatant was then deproteinized, using 6% perchloric acid; various other agents, such as acetonitrile, could alternately be used if desired. The deproteinized liquid was then centrifuged again at 64 G for 10 minutes, and the supernatant was decanted and divided into 0.20 mL aliquots. At least one aliquot was stored at -40° C. as a backup in case checks were needed, while tests were run on other aliquots.
Blood samples were assayed for lactate concentration at a registered clinical laboratory (SmithKline Beckman, in Evansville, Ind.), using a commercial assay kit sold by Sigma Chemical Company (St. Louis, Mo.). This assay uses an enzymatic procedure involving lactate dehydrogenase; it adds glycine to the samples as a buffer, along with a standardized excess amount of NAD. The lactate dehydrogenase enzyme converts lactate to pyruvate, and the hydrogen atoms that are liberated by this reaction convert NAD to reduced NAD (NADH). The NADH absorbs ultraviolet light at 340 nm, and the level of absorbance (measured by a spectrophotometer) is directly proportional to the amount of NADH in the sample, and thus to the amount of lactate that was initially present in the sample.
In a second set of test subjects (18 total: 9 test subjects and 9 saline placebo controls), sodium DCA was administered in an identical manner, using a single 30-minute infusion, at a dosage of 60 mg/kg. […]

[2] = tested on: pyruvate dehydrogenase enzyme complex; settings: rats; Evans 1982; cited from earlier work
[3] = Side effects of DCA infusion in healthy volunteers; format: in vivo, human; settings: 100 mg/kg infused within 30 minutes
Procedure: Accordingly, to ensure that this effect would not occur when DCA was administered, an initial dose of 100 mg/kg NaDCA was infused into test subjects, and a second dose of 50 mg/kg was infused 8 hours later.
The dose of 100 mg/kg is the highest dose so far administered to human beings within 30 minutes. […] This was not considered clinically significant and needed no treatment; it would be relatively unimportant in most of the pathological states that are proper subjects for treatment using DCA. However, the sedation side effect was regarded as creating a practical limit (100 mg/kg infused in 30 minutes or less) for tests on healthy volunteers.

[4] = especially over prolonged periods, Stacpoole et al 1979; cited from earlier work
[5] = DCA clearance from the blood of human subjects after intravenous infusion; format: in vivo
Procedure: as §1, §2, §3
Blood samples were collected into tubes containing sodium heparin, and spun at 64 G (i.e., 64 times normal gravity) for 10 minutes, to remove blood cells. The supernatant was then deproteinized, using 6% perchloric acid; various other agents, such as acetonitrile, could alternately be used if desired. […]

[6] = Reported DCA concentration and clearance in rats (literature); format: in vivo, rat; settings: oral 100 mg/kg vs. human i.v.
Procedure: Evans et al 1981 administered DCA orally, in 100 mg/kg doses, either once, or daily for seven days.

[7] = Reported DCA pharmacokinetics in dogs (literature); format: in vivo, dog; settings: dogs vs. 0.5 hour in humans
Description: Accordingly, dogs cannot be used as reliable models or predictors for the pharmacokinetic effects of DCA in humans.

[8] = humans, cited from earlier work
[9] = cited from earlier work
[10] = dogs; Lukas et al 1980, Ribes et al 1979; cited from earlier work
[11] = 100 + 50 group, 14 h after second infusion

O=C([O-])C(Cl)Cl.[Na+] [DCA, sodium dichloroacetate]
Duration of blood lactate reduction (FIG. 3 legend) ([1]; 60 mg/kg as printed in legend): more than 8 hours
Persistence of reduction in serum lactate after the first infusion ([1]; 100 mg/kg followed by 50 mg/kg 8 hours later): more than 22 hours
Duration of lactate reduction ([1]; 100 mg/kg single i.v. infusion): > 8 h
Persistence of lactate reduction relative to serum DCA ([1]; 100 mg/kg single i.v. infusion, in words): persistent reduction in serum lactate levels which significantly outlasted the serum DCA concentrations
Serum lactate, baseline ([1]; 60 + 30 group (mg/kg)): 1.19 ± 0.24 mM
Serum lactate just before second infusion ([1]; 60 + 30 group (mg/kg)): 0.72 ± 0.15 mM
Serum lactate 14 h after second infusion ([1]; 60 + 30 group (mg/kg)): 0.94 ± 0.12 mM
Level of statistical significance, (c) vs. placebo ([1]; 60 + 30 group, 14 h after second infusion): 0.021
Level of statistical significance, (b) vs. placebo ([1]; 60 + 30 group): 0.009
Serum lactate, baseline ([1]; 100 + 50 group (mg/kg)): 0.84 ± 0.10 mM
Serum lactate just before second infusion ([1]; 100 + 50 group (mg/kg)): 0.39 ± 0.04 mM
Serum lactate 14 h after second infusion ([1]; 100 + 50 group (mg/kg)): 0.32 ± 0.08 mM
Level of statistical significance, (c) vs. 60 + 30 [1, 11]: 0.004
Level of statistical significance, (c) vs. placebo [1, 11]: < 0.001
Level of statistical significance, (b) vs. placebo ([1]; 100 + 50 group): < 0.001
Time course of DCA concentration and lactate reduction ([1]; single 30 mg/kg i.v. infusion, in words, FIG. 1, 30 mg/kg): a peak of DCA concentration which rapidly dropped off, and a similar peak in lactate reduction which disappeared fairly rapidly; also recorded: closely paralleled (over time) the clearance of DCA from the blood
Duration of blood lactate reduction ([1]; single 30 mg/kg i.v. infusion, in words, 30 mg/kg): returned to normal levels within a few hours
Duration of blood lactate reduction ([1]; single 30 mg/kg i.v. infusion, in words, listed as NaDCA, 30 mg/kg): lasted only a few hours
Reversal of the decline in serum lactate levels ([1]; single 60 mg/kg i.v. infusion, at 6.5 hours and afterwards): no evidence of reversal of the decline in serum lactate levels
Persistence of lactate reduction relative to DCA clearance ([1]; single 60 mg/kg i.v. infusion, in words): significantly outlasted the persistence of serum DCA levels
Persistence of lactate reduction relative to DCA clearance ([1]; single 60 mg/kg i.v. infusion, in words, listed as NaDCA): lasted substantially longer and persisted even after substantially all of the DCA had been cleared from the patient's blood; also recorded: substantially outlasted the clearance of DCA from the circulation
Duration of reduction in plasma lactate after start of second infusion ([1]; two infusions eight hours apart): more than 12 hours
Duration of serum lactate reduction using two injections over 24 h ([1]; two injections, about 40 mg/kg DCA or more per injection): ≥ 24 h
Activation of the pyruvate dehydrogenase enzyme complex over time [2]: dropped off rapidly with time
Duration of transient sedation or sleepiness [3]: about 20 minutes
Transient sedation or sleepiness [3]: a number of subjects reported transient sedation or sleepiness
Toxic effects of oral administration [4]: may have toxic effects
Clearance rate of 30 mg/kg dose with vs. without prior DCA exposure ([5]; 30 mg/kg i.v., prior 60 mg/kg 8 hours earlier, FIG. 4): comparable
Clearance rate of 50 mg/kg dose after prior exposure vs. single 60 mg/kg dose ([5]; 50 mg/kg i.v., prior 100 mg/kg 8 hours earlier): similar
DCA clearance from blood ([5]; single 60 mg/kg i.v., by 6.5 hours): nearly all of the DCA had already been avidly cleared from the blood
Inferred plasma concentration relative to that in human patients dosed intravenously [6]: about 1/10
Half-life in dogs relative to humans [7]: about 40 times longer
Half-life ([8]; Lukas et al 1980, Ribes et al 1979): 30 min
Half-life ([8]; Wells et al 1980): 31 min
Time to complete elimination ([8]; Wells et al 1980): ≤ 5 h
Clearance from circulating blood ([8]; in words): rapidly cleared
Peak DCA concentration in liver tissue ([9]; oral 100 mg/kg, once or daily for seven days, Evans et al 1981): about 25 μg of DCA per gram of liver tissue
DCA concentration in the liver over time ([9]; rats, Evans 1982): declined rapidly with time
DCA clearance ([9]; rats, in words): fairly rapid
Half-life [10]: 1140 to 1440 min
